Results from publication PMC9266350, “Searching for a Paradigm Shift in Auger-Electron Cancer Therapy with Tumor-Specific Radiopeptides Targeting the Mitochondria and/or the Cell Nucleus” (International Journal of Molecular Sciences, 2022).
Where a SMILES comes first, the peptide text is derived from it. Where no end group is shown, it is not given here. The star is where a group is joined. X1 = Cc1nn(CCN(CCN)CCCC(=O)NCCC[n+]2c3cc(N(C)C)ccc3cc3ccc(N(C)C)cc32)c(C)c1CC(=O)*; pyrazolyl‑diamine chelator carrying TPP = not defined here

Experiments:
PC3 cells [1] = experiment: γ-H2AX assay and foci analysis; assay type: cell-based, human; conditions: 1.85 MBq, 24 h at 37 °C
Experimental: PC3 cells were seeded at a density of 10000 cells per well in an eight-well chamber slide and allowed to attach overnight. […] PC3 cells were washed three times with PBS, and fixed with 4% formaldehyde in PBS for 15 min. After washing with PBS, cells were permeabilized with Triton X-100 (0.5%) at room temperature for 5 min followed by two washing steps with 1% BSA in PBS. Then, cells were incubated with an anti-γ-H2AX primary antibody (mouse anti-γ-H2AX (ser139), Stressgen) at 2 μg/mL for 1 h. After being washed twice with 1% BSA in PBS, cells were incubated with a Texas Red-X-conjugated anti-mouse secondary antibody at […] for 1 h, followed by three washing steps with PBS. Cells were finally mounted in anti-fade mounting media with DAPI (Vectashield H-1200, Vector Laboratories).
Cells were analyzed under 64x magnification. Several high-quality 2D images were randomly collected in each slide and analyzed using the pipeline Speckle Count from the freeware CellProfiler. At least 200 nuclei were analyzed per experiment per dose. Statistical analysis was performed with Origin 7.5 software.

human GRPR = target: T1, human GRPR (Homo sapiens, UniProt P30550); experiment: Competitive radioligand binding assay against [125I-Tyr4]-BBN; conditions: PC3 cells, 90 min at 4 °C, one-site model, mean ± SEM of three independent experiments; read-out: IC50, displacement of [125I-Tyr4]-BBN from GRPR
T1 construct: endogenous in cells; host or cells: PC3 human prostate carcinoma cells (intact, attached)
Experimental: The in vitro cell-binding assays were performed with the prostate carcinoma cell line PC3. Briefly, cells were seeded in 24-well plates (150,000 cells per well) and allowed to attach overnight. […] The competition was interrupted by discarding supernatants and washing the cells twice with ice-cold PBS with 0.2% BSA. Cells were then lysed with 1 M NaOH treatment (2 × 0.4 mL, 10 min at 37 °C). Lysates were collected and counted for their radioactivity content in an automated γ–counter (HIDEX AMG, Hidex, Turku, Finland).

PC3 cells [2] = experiment: Mitochondrial ToxGlo assay (cell membrane integrity and cellular ATP levels); conditions: 2 h at 37 °C, HBSS with galactose and 1% BSA, CCCP 10 μM
Experimental: PC3 cells were seeded at a density of 10,000 cells per well in a 96 well-plate and allowed to attach overnight. […] Cells incubated only with this medium were used as a basal control and cells incubated with CCCP (10 μM) as a positive control for mitochondrial inhibition. After the 2 h, the Mitochondrial Toxglo assay was performed according to the manufacturer’s instructions (Promega). Assays were performed in triplicate.

PC3 cells [3] = experiment: Confocal fluorescence microscopy colocalization with MitoTracker; assay type: cell-based, human; conditions: 1 µM, 30 min with MitoTracker Deep Red FM, fixed
Experimental: To study the intracellular location of uptaken Re-AO-BBN, cells were washed with PBS, incubated with MitoTracker™ Deep Red FM (1:1000, Invitrogen, Bleiswijk, The Netherlands) and Re-AO-BBN (1 µM) in FluoroBrite™ DMEM with high D-glucose for 30 min, fixed with 4% paraformaldehyde (in PBS) at 4 °C for 20 min, washed with PBS, incubated with Hoechst (0.2 µg/mL) for 1 h, washed and left submerged in PBS. Cells were imaged on a Leica TCS SP8 confocal microscope, equipped with a HC Plan Apo 20 × /0.75 dry objective, 405, 488 and 638 nm laser lines, PMT (MitoTracker) and HyD (Hoechst, Re-AO-BBN) detectors. The pinhole was set to 1 airy unit and Nyquist sampling was met in xyz (132 × 132 × 685 nm). Mitochondria accumulation was assessed by the Pearson coefficient between Re-AO-BBN and MitoTracker fluorescence intensities, considering an appropriate threshold.

PC3 cells [4] = experiment: Clonogenic assay; assay type: cell-based, human; conditions: highest concentration 10^−7 M (range 10^−10–10^−7 M), 24 h at 37 °C
Experimental: PC3 cells were seeded at a density of 50000 cells per well in a 24 well-plate and allowed to attach overnight. […] Immediately, after incubation, cells were seeded out in appropriate dilution to form colonies, in 2 weeks, with at least 50 cells. Colonies were fixed with methanol: glacial acetic acid (3:1) and stained with Giemsa (4%).
The Plating Efficiency (PE), ratio of the number of colonies to the number of cells seeded, and the Survival Fraction (SF), number of colonies that arise after treatment of cells, expressed in terms of PE, were obtained following the methodology described in [66], where:(1) PE=number of colonies formed /number of cells seeded×100% (2) SF=number of colonies formed after treatment/number of cells seeded×PE

T1 sequence (P30550 whole entry): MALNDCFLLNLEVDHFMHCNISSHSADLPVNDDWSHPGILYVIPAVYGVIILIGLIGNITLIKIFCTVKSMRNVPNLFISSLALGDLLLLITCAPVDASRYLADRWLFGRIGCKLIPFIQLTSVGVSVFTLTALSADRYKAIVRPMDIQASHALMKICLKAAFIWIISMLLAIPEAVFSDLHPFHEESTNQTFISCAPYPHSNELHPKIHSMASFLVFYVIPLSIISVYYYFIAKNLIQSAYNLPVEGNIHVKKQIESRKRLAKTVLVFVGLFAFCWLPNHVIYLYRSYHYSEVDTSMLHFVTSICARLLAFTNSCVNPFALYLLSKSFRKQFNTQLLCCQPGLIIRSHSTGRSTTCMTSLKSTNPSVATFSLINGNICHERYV

## [O]=[99Tc](=[O])(=[O])[O-] [^99mTcO4^−]
PC3 cells [1]
  foci number / DNA damage relative to the control (in words): did not cause any increase

## Re-TPP-BBN: Re(I) congener of 99mTc-TPP-BBN, surrogate of the 99mTc complex ({pyrazolyl‑diamine chelator carrying TPP}-GGGQWAVGHLM; ends and bridges not checked; also: Re(I) complex of the chelator)
Human GRPR
  IC50: 0.38 ± 0.14 nM

## cyanide-m-chlorophenylhydrazone [CCCP]
PC3 cells [2]; radiocomplexes 0.74 and 1.85 MBq (loss at the highest activity)
  cell membrane integrity / viability versus control: did not compromise their viability
PC3 cells [2]; radiocomplexes 0.74 and 1.85 MBq
  ATP production / ATP levels versus control cells: significantly reduced the ATP production

## CSCC[C@H](NC(=O)[C@H](CC(C)C)NC(=O)[C@H](Cc1c[nH]cn1)NC(=O)CNC(=O)[C@@H](NC(=O)[C@H](C)NC(=O)[C@H](Cc1c[nH]c2ccccc12)NC(=O)[C@H](CCC(N)=O)NC(=O)CNC(=O)CNC(=O)CNC(=O)Cc1c(C)nn(CCN(CCN)CCCC(=O)NCCC[n+]2c3cc(N(C)C)ccc3cc3ccc(N(C)C)cc32)c1C)C(C)C)C(N)=O [Re-AO-BBN] (X1-GGGQWAVGHLM-NH2; C-terminus assumed)
PC3 cells [3]
  Pearson's Correlation Coefficient (PCC) of colocalization with Mitotracker dye: 0.31
PC3 cells [4]
  effect on survival of PC3 cells compared with the control: no effect
